# Patent publication US8268829B2, “Substituted pyrimidines useful as protein kinase inhibitors” (Vertex Pharmaceuticals Inc., priority 2002, dated 2012)
row,SMILES,melting point [°C]
1,CCC(=O)Nc1ccc(Sc2nc(Nc3cc(C)n[nH]3)cc(N3CC(C)NC(C)C3)n2)cc1 (centres unmarked) [Compound I-19],151 to 152
2,CCC(=O)Nc1ccc(Sc2nc(Nc3cc(C)n[nH]3)cc(N3CCC(N)C3)n2)cc1 (centres unmarked) [Compound I-20],159 to 160
3,Cc1cc(Nc2cc(NCCN3CCCC3)nc(Sc3ccc(NC(=O)C4CC4)cc3)n2)[nH]n1 [Compound I-29],220 to 222
4,N#CCCN1CCN(c2cc(Nc3ccn[nH]3)nc(Sc3ccc(NC(=O)C4CC4)cc3)n2)CC1 [Compound I-37],131 to 132
5,CS(=O)(=O)N1CCN(c2cc(Nc3ccn[nH]3)nc(Sc3ccc(NC(=O)C4CC4)cc3)n2)CC1 [Compound I-42],168 to 169
6,CS(=O)(=O)CCN1CCN(c2cc(Nc3ccn[nH]3)nc(Sc3ccc(NC(=O)C4CC4)cc3)n2)CC1 [Compound I-45],154 to 155
7,CC1CN(c2cc(Nc3ccn[nH]3)nc(Sc3ccc(NC(=O)C4CC4)cc3)n2)CCN1 (centres unmarked) [Compound I-46],160 to 161
8,O=C(Nc1ccc(Sc2nc(Nc3ccn[nH]3)cc(N3CCN(CC(=O)N4CCOCC4)CC3)n2)cc1)C1CC1 [Compound I-47],158 to 159
9,CC(C)(C)N1CCN(c2cc(Nc3ccn[nH]3)nc(Sc3ccc(NC(=O)C4CC4)cc3)n2)CC1 [Compound I-53],167 to 169
10,Cc1cc(Nc2cc(N3CCOCC3)nc(Sc3ccc(NC(=O)C4CC4)cc3)n2)[nH]n1 [Compound I-61],238 to 239
11,Cc1cc(Nc2cc(N3CCNCC3)nc(Sc3ccc(NC(=O)C(C)(C)C)cc3)n2)[nH]n1 [Compound V-3],178 to 181
